# In US9056874B2, “Complement pathway modulators and uses thereof” (NOVARTIS AG, priority 2012, dated 2015):
# Target: T1, factor B (Homo sapiens, UniProt P00751)
# Assay: factor B inhibition assay of Biological Example 1
# Assay type: biochemical
# Design: CVF-Bb complex prepared from purified cobra venom factor (1 μM), recombinant human complement factor B; made in house; host or cells: drosophila cells (factor B); E. coli (factor D used to form the complex)
# Conditions: IC50 (nM), assay of Biological Example 1 (Table 1)
# Target sequence in this assay (P00751 260-764 limits assumed): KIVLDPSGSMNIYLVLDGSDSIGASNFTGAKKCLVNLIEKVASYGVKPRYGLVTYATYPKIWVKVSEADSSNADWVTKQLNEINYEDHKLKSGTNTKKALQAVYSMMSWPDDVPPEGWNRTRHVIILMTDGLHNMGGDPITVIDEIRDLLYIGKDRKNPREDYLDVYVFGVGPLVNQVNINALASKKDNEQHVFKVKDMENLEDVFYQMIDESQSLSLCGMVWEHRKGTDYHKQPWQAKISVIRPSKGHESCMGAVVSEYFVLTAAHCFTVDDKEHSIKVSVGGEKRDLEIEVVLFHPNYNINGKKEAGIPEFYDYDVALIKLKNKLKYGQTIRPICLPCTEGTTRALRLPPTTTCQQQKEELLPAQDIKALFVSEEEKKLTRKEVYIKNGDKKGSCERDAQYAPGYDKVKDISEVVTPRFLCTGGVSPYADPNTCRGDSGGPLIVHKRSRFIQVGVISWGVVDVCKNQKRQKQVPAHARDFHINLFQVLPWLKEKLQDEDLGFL
# Target sequence in this assay (Q91132 23-649 partner limits assumed): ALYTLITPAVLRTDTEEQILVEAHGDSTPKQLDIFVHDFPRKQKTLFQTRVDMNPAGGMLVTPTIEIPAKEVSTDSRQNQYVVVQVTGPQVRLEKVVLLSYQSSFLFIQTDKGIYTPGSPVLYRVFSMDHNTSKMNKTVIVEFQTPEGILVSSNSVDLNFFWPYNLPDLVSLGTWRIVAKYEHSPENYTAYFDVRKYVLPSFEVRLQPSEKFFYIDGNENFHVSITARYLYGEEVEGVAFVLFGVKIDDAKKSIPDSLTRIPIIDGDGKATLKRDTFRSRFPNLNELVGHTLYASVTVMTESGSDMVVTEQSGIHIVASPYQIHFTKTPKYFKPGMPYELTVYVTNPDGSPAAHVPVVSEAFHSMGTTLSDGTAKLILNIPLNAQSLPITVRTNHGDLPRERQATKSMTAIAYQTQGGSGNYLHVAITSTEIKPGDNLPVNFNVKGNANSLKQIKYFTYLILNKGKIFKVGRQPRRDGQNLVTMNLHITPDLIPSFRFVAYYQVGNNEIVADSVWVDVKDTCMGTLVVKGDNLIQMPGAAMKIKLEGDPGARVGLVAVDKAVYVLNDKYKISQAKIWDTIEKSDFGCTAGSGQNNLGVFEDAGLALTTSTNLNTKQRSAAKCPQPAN
# Target sequence in this assay (Q91132 733-984 partner limits assumed): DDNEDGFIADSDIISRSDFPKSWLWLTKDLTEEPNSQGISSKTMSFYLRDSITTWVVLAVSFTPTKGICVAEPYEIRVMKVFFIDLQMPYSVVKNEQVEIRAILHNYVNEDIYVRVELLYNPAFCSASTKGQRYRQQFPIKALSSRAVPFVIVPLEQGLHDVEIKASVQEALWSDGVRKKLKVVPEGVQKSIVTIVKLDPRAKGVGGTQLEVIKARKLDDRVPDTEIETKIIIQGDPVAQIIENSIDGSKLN
# Target sequence in this assay (Q91132 1264-1642 partner limits assumed): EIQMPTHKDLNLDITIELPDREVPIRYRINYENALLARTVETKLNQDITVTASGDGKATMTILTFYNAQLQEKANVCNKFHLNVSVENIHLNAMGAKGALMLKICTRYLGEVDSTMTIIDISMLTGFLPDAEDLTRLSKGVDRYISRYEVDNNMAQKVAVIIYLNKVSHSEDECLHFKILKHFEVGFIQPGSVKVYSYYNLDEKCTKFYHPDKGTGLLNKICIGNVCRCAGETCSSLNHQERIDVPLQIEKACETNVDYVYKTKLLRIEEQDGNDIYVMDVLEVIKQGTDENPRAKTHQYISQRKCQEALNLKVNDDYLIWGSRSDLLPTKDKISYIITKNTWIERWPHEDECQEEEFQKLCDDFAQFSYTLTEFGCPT
row,Molecule,IC50 [nM]
1,Cc1cc(C)c2[nH]ccc2c1C(O)(c1ccccc1)c1nc2cc(C#N)ccc2[nH]1 (centres unmarked) [Example 79-I],660
2,"Cc1cc(C)c2[nH]cc(Br)c2c1Cc1nc2cc(C#N)ccc2[nH]1 [Example 85, 2-((3-bromo-5,7-dimethyl-1H-indol-4-yl)methyl)-1H-benzo[d]imidazole-5-carbonitrile]",220
3,"Cc1cc(C)c2[nH]cc(Cl)c2c1Cc1nc2cc(C#N)ccc2[nH]1 [Example 86, 2-((3-Chloro-5,7-dimethyl-1H-indol-4-yl)methyl)-1H-benzo[d]imidazole-5-carbonitrile]",270
4,"CCc1cc(C)c2[nH]cc(C#N)c2c1Cc1nc2cc(C#N)ccc2[nH]1 [Example 90, 2-((3-Cyano-5-ethyl-7-methyl-1H-indol-4-yl)methyl)-1H-benzo[d]imidazole-5-carbonitrile]",110
5,"Cc1cc(Cl)c2[nH]ccc2c1Cc1nc2cc(C#N)ccc2[nH]1 [Example 110-K, 2-((7-Chloro-5-methyl-1H-indol-4-yl)methyl)-1H-benzo[d]imidazole-5-carbonitrile]",3330
6,"CCc1cc(C)c(Cc2nc3cc(C#N)ccc3[nH]2)c2cc[nH]c12 [Example 111-E, 2-((7-Ethyl-5-methyl-1H-indol-4-yl)methyl)-1H-benzo[d]imidazole-5-carbonitrile]",22900
7,"Cc1cc(Br)c2[nH]ccc2c1Cc1nc2cc(C#N)ccc2[nH]1 [Example 112-E, 2-((7-Bromo-5-methyl-1H-indol-4-yl)methyl)-1H-benzo[d]imidazole-5-carbonitrile]",4150
8,"Cc1cc(CO)c2[nH]ccc2c1Cc1nc2cc(C#N)ccc2[nH]1 [Example 113-F, 2-((7-(Hydroxymethyl)-5-methyl-1H-indol-4-yl)methyl)-1H-benzo[d]imidazole-5-carbonitrile]",9600
9,"C=C(c1nc2cc(C#N)ccc2[nH]1)c1c(CC)cc(C)c2[nH]ccc12 [Example 114-C, 2-(1-(5-Ethyl-7-methyl-1H-indol-4-yl)vinyl)-1H-benzo[d]imidazole-5-carbonitrile]",70
10,"C=C(c1nc2cc(C#N)ccc2[nH]1)c1c(OC)cc(C)c2[nH]ccc12 [Example 115, 2-(1-(5-Methoxy-7-methyl-1H-indol-4-yl)vinyl)-1H-benzo[d]imidazole-5-carbonitrile]",30
11,"CCc1cc(C)c2[nH]cc(-c3ccn[nH]3)c2c1Cc1nc2cc(C#N)ccc2[nH]1 [Example 116-F, 2-((5-Ethyl-7-methyl-3-(1H-pyrazol-5-yl)-1H-indol-4-yl)methyl)-1H-benzo[d]imidazole-5-carbonitrile]",190
12,"COc1cc(C)c2[nH]ccc2c1C(C)(C)c1nc2cc(C#N)ccc2[nH]1 [Example 122-C, 2-(2-(5-Methoxy-7-methyl-1H-indol-4-yl)propan-2-yl)-1H-benzo[d]imidazole-5-carbonitrile]",5
13,"Cc1cc(C)c2c(c1Cc1nc3cc(C#N)ccc3[nH]1)CCN2 [Example 123, 2-((5,7-Dimethylindolin-4-yl)methyl)-1H-benzo[d]imidazole-5-carbonitrile]",920

# Same assay, conditions: assay of Biological Example 1 (Table 1), read-out: IC50
row,Molecule,IC50 [nM]
1,(+) or (−)-2-(1-methoxy-1-(7-methyl-5-(methylsulfonyl)-1H-indol-4-yl)ethyl)-1H-benzo[d]imidazole-5-carbonitrile [12-B b) (tr = 3.5 min)],13800
2,(−) or (+)-2-(1-methoxy-1-(7-methyl-5-(methylsulfonyl)-1H-indol-4-yl)ethyl)-1H-benzo[d]imidazole-5-carbonitrile [12-B b) (tr = 6.1 min)],600

# Target: T1, factor B
# Assay: assay of Biological Example 2.7
# Assay type: binding
# Design: made in house; host or cells: drosophila cells
# Conditions: assay of Biological Example 2.7 (Table 2)
# Target sequence in this assay (P00751 26-764): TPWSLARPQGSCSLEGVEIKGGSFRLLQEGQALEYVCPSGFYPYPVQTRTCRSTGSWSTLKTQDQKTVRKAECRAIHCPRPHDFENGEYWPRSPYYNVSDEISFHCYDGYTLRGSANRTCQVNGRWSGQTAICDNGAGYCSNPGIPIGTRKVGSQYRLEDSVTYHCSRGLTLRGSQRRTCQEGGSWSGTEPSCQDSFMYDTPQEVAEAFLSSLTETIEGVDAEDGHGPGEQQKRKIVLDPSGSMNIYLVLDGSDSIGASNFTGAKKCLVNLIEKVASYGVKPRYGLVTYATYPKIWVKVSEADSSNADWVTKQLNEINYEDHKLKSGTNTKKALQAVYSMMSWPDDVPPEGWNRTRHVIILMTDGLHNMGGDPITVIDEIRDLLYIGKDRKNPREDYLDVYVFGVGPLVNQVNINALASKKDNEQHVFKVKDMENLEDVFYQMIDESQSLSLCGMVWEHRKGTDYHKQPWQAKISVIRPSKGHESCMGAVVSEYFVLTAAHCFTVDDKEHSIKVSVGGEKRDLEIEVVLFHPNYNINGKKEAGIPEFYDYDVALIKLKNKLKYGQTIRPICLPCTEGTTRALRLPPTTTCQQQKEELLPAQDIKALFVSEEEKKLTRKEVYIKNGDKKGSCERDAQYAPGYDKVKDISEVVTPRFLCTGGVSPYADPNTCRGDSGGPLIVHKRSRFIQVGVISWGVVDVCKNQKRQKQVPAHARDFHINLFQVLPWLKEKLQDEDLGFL
row,Molecule,IC50 [nM]
1,"COc1cc(C)c2[nH]ccc2c1C(NCCN)(c1nc2cc(C#N)ccc2[nH]1)C(F)(F)F (racemic) [38-D b) (+), (+)-2-(1-((2-aminoethyl)amino)-2,2,2-trifluoro-1-(5-methoxy-7-methyl-1H-indol-4-yl)ethyl)-1H-benzo[d]imidazole-5-carbonitrile]",2060
2,"COc1cc(C)c2[nH]ccc2c1C(NCCN)(c1nc2cc(C#N)ccc2[nH]1)C(F)(F)F (racemic) [38-D b) (−), (−)-2-(1-((2-aminoethyl)amino)-2,2,2-trifluoro-1-(5-methoxy-7-methyl-1H-indol-4-yl)ethyl)-1H-benzo[d]imidazole-5-carbonitrile]",780
3,"COc1cc(C)c2[nH]ccc2c1C(OC(F)C(=O)O)(c1nc2cc(C#N)ccc2[nH]1)C(F)(F)F (racemic) [Example 35-G, (±)-2-(1-(5-Cyano-1H-benzo[d]imidazol-2-yl)-2,2,2-trifluoro-1-(5-methoxy-7-methyl-1H-indol-4-yl)ethoxy)-2-fluoroacetic acid]",770
4,"COc1cc(C)c2[nH]ccc2c1C(OCc1nnc(C)o1)(c1nc2cc(C#N)ccc2[nH]1)C(F)(F)F (racemic) [Example 35-L, (±)-2-(2,2,2-Trifluoro-1-(5-methoxy-7-methyl-1H-indol-4-yl)-1-((5-methyl-1,3,4-oxadiazol-2-yl)methoxy)ethyl)-1H-benzo[d]imidazole-5-carbonitrile]",240
5,"Cc1cc(C2CC2)c(C(OCC(=O)O)(c2nc3cc(C#N)ccc3[nH]2)C(F)(F)F)c2cc[nH]c12 (racemic) [Example 109-C, (±)-2-(1-(5-Cyano-1H-benzo[d]imidazol-2-yl)-1-(5-cyclopropyl-7-methyl-1H-indol-4-yl)-2,2,2-trifluoroethoxy)acetic acid]",65
6,"COc1cc(C)c2[nH]ccc2c1C(OCC(C)(C)C(=O)O)(c1nc2cc(C#N)ccc2o1)C(F)(F)F (racemic) [Example 138, (±)-3-(1-(5-cyanobenzo[d]oxazol-2-yl)-2,2,2-trifluoro-1-(5-methoxy-7-methyl-1H-indol-4-yl)ethoxy)-2,2-dimethylpropanoic acid]",1220
7,"COc1cc(C)c2[nH]ccc2c1C(NCCO)(c1nc2cc(C#N)ccc2[nH]1)C(F)(F)F (racemic) [Example 139-C, (±)-2-(2,2,2-Trifluoro-1-((2-hydroxyethyl)amino)-1-(5-methoxy-7-methyl-1H-indol-4-yl)ethyl)-1H-benzo[d]imidazole-5-carbonitrile]",120
8,"COc1cc(C)c2[nH]ccc2c1C(NCC(=O)O)(c1nc2cc(C#N)ccc2[nH]1)C(F)(F)F (racemic) [Example 140-B, (±)-2-((1-(5-cyano-1H-benzo[d]imidazol-2-yl)-2,2,2-trifluoro-1-(5-methoxy-7-methyl-1H-indol-4-yl)ethyl)amino)acetic acid]",340
9,"COc1cc(C)c2[nH]ccc2c1C1(c2nc3cc(C#N)ccc3[nH]2)CC1C(=O)O (racemic) [Example 142-D, (±)-2-(5-Cyano-1H-benzo[d]imidazol-2-yl)-2-(5-methoxy-7-methyl-1H-indol-4-yl)cyclopropanecarboxylic acid]",790
10,"COc1cc(C)c2[nH]ccc2c1C1(c2nc3cc(C#N)ccc3o2)CC1C(=O)O (racemic) [Example 143, (±)-2-(5-Cyanobenzo[d]oxazol-2-yl)-2-(5-methoxy-7-methyl-1H-indol-4-yl)cyclopropanecarboxylic acid]",7200
11,"CCOC(=O)C(C)(c1nc2cc(C#N)ccc2o1)c1c(OC)cc(C)c2[nH]ccc12 (racemic) [Example 144-D, (±)-Ethyl 2-(5-cyanobenzo[d]oxazol-2-yl)-2-(5-methoxy-7-methyl-1H-indol-4-yl)propanoate]",7950
12,"COc1cc(C)c2[nH]ccc2c1C(CC(=O)O)c1nc2cc(C#N)ccc2[nH]1 (racemic) [Example 145-D, (±)-3-(5-Cyano-1H-benzo[d]imidazol-2-yl)-3-(5-methoxy-7-methyl-1H-indol-4-yl)propanoic acid]",41
13,"COc1cc(C)c2[nH]ccc2c1C(CCO)c1nc2cc(C#N)ccc2[nH]1 (racemic) [Example 145-E, (±)-2-(3-hydroxy-1-(5-methoxy-7-methyl-1H-indol-4-yl)propyl)-1H-benzo[d]imidazole-5-carbonitrile]",250
14,"COc1cc(C)c2[nH]ccc2c1C(CCC(=O)O)c1nc2cc(C#N)ccc2[nH]1 (racemic) [Example 146-C, (±)-4-(5-Cyano-1H-benzo[d]imidazol-2-yl)-4-(5-methoxy-7-methyl-1H-indol-4-yl)butanoic acid]",59
15,"COc1cc(C)c2[nH]ccc2c1C(C)(CCC(=O)O)c1nc2cc(C#N)ccc2o1 (racemic) [Example 150-C, (±)-4-(5-cyanobenzo[d]oxazol-2-yl)-4-(5-methoxy-7-methyl-1H-indol-4-yl)pentanoic acid]",1020
16,"COc1cc(C)c2[nH]ccc2c1C(CC(C)CO)c1nc2cc(C#N)ccc2[nH]1 (racemic) [Example 151-C, (±)-2-(4-Hydroxy-1-(5-methoxy-7-methyl-1H-indol-4-yl)-3-methylbutyl)-1H-benzo[d]imidazole-5-carbonitrile]",92
17,"COc1cc(C)c2[nH]ccc2c1C(Cc1nn[nH]n1)c1nc2cc(C#N)ccc2[nH]1 (racemic) [Example 152, (±)-2-(1-(5-Methoxy-7-methyl-1H-indol-4-yl)-2-(2H-tetrazol-5-yl)ethyl)-1H-benzo[d]imidazole-5-carbonitrile]",67
18,"COc1cc(C)c2[nH]ccc2c1C(Cc1nn[nH]n1)c1nc2cc(C#N)ccc2o1 (racemic) [Example 153, (±)-2-(1-(5-Methoxy-7-methyl-1H-indol-4-yl)-2-(2H-tetrazol-5-yl)ethyl)benzo[d]oxazole-5-carbonitrile]",1110
19,"COc1cc(C)c2[nH]ccc2c1C(C)(Cc1nn[nH]n1)c1nc2cc(C#N)ccc2o1 (racemic) [Example 154, (±)-2-(2-(5-Methoxy-7-methyl-1H-indol-4-yl)-1-(2H-tetrazol-5-yl)propan-2-yl)benzo[d]oxazole-5-carbonitrile]",21100
20,"COc1cc(C)c2[nH]ccc2c1C(C)(CCC(=O)O)c1nc2cc(C#N)ccc2[nH]1 (racemic) [Example 155-M, (±)-4-(5-Cyano-1H-benzo[d]imidazol-2-yl)-4-(5-methoxy-7-methyl-1H-indol-4-yl)pentanoic acid]",20
